{"source": "ChEMBL document CHEMBL3352794", "about": "“Identification of potent inhibitors of the chicken soluble epoxide hydrolase” (Bioorg Med Chem Lett, 2015)"}
{"test": "Stability in chicken liver microsomes assessed as compound remaining at 1 uM after 30 mins by mass spectrometry", "details": "not given", "units": {"remaining at 0.5 h, 1 µM": "%"}}
{"compound": "O=C(O)CCCCCCCCCCCNC(=O)NC12CC3CC(CC(C3)C1)C2", "remaining at 0.5 h, 1 µM": 106}
{"compound": "CNC(=O)c1ccc(O[C@H]2CC[C@H](NC(=O)NC34CC5CC(CC(C5)C3)C4)CC2)cc1", "remaining at 0.5 h, 1 µM": 96}
{"compound": "COc1ccc(O[C@H]2CC[C@@H](NC(=O)NC34CC5CC(CC(C5)C3)C4)CC2)cc1", "remaining at 0.5 h, 1 µM": 69}
{"compound": "COC(=O)c1ccc(C(=O)N2CCC(NC(=O)Nc3ccc(OC(F)(F)F)cc3)CC2)cc1", "remaining at 0.5 h, 1 µM": 105}
{"compound": "O=C(NC12CC3CC(CC(C3)C1)C2)N[C@H]1CC[C@H](Oc2ccc(CO)cc2)CC1", "remaining at 0.5 h, 1 µM": 73}
{"compound": "CNC(=O)c1ccc(O[C@H]2CC[C@@H](NC(=O)Nc3ccc(OC(F)(F)F)cc3)CC2)cc1", "remaining at 0.5 h, 1 µM": 119}
{"test": "Stability in human liver microsomes assessed as compound remaining at 1 uM after 30 mins by mass spectrometry in presence of NADPH", "details": "not given", "units": {"remaining at 0.5 h, 1 µM": "%"}}
{"compound": "O=C(O)CCCCCCCCCCCNC(=O)NC12CC3CC(CC(C3)C1)C2", "remaining at 0.5 h, 1 µM": 69}
{"compound": "CNC(=O)c1ccc(O[C@H]2CC[C@H](NC(=O)NC34CC5CC(CC(C5)C3)C4)CC2)cc1", "remaining at 0.5 h, 1 µM": 94}
{"compound": "COc1ccc(O[C@H]2CC[C@@H](NC(=O)NC34CC5CC(CC(C5)C3)C4)CC2)cc1", "remaining at 0.5 h, 1 µM": 57}
{"compound": "COC(=O)c1ccc(C(=O)N2CCC(NC(=O)Nc3ccc(OC(F)(F)F)cc3)CC2)cc1", "remaining at 0.5 h, 1 µM": 2.7}
{"compound": "O=C(NC12CC3CC(CC(C3)C1)C2)N[C@H]1CC[C@H](Oc2ccc(CO)cc2)CC1", "remaining at 0.5 h, 1 µM": 53}
{"compound": "CNC(=O)c1ccc(O[C@H]2CC[C@@H](NC(=O)Nc3ccc(OC(F)(F)F)cc3)CC2)cc1", "remaining at 0.5 h, 1 µM": 5.4}
{"test": "Stability in chicken liver microsomes assessed as compound remaining at 1 uM after 30 mins by mass spectrometry in presence of NADPH", "details": "not given", "units": {"remaining at 0.5 h, 1 µM": "%"}}
{"compound": "O=C(O)CCCCCCCCCCCNC(=O)NC12CC3CC(CC(C3)C1)C2", "remaining at 0.5 h, 1 µM": 70}
{"compound": "CNC(=O)c1ccc(O[C@H]2CC[C@H](NC(=O)NC34CC5CC(CC(C5)C3)C4)CC2)cc1", "remaining at 0.5 h, 1 µM": 96}
{"compound": "COc1ccc(O[C@H]2CC[C@@H](NC(=O)NC34CC5CC(CC(C5)C3)C4)CC2)cc1", "remaining at 0.5 h, 1 µM": 2.1}
{"compound": "COC(=O)c1ccc(C(=O)N2CCC(NC(=O)Nc3ccc(OC(F)(F)F)cc3)CC2)cc1", "remaining at 0.5 h, 1 µM": 94}
{"compound": "O=C(NC12CC3CC(CC(C3)C1)C2)N[C@H]1CC[C@H](Oc2ccc(CO)cc2)CC1", "remaining at 0.5 h, 1 µM": 24}
{"compound": "CNC(=O)c1ccc(O[C@H]2CC[C@@H](NC(=O)Nc3ccc(OC(F)(F)F)cc3)CC2)cc1", "remaining at 0.5 h, 1 µM": 89}
{"test": "Solubility of the compound in 0.1 M sodium phosphate buffer at pH 7.4 containing 1% DMSO by turbidity method", "details": "0.1 M sodium phosphate buffer with 1% DMSO", "units": {"solubility kinetic": "µM"}}
{"compound": "O=C(O)CCCCCCCCCCCNC(=O)NC12CC3CC(CC(C3)C1)C2", "solubility kinetic": 37.5}
{"compound": "CNC(=O)c1ccc(O[C@H]2CC[C@H](NC(=O)NC34CC5CC(CC(C5)C3)C4)CC2)cc1", "solubility kinetic": 50}
{"compound": "COC(=O)c1ccc(C(=O)N2CCC(NC(=O)Nc3ccc(OC(F)(F)F)cc3)CC2)cc1", "solubility kinetic": 75}
{"compound": "O=C(NC12CC3CC(CC(C3)C1)C2)N[C@H]1CC[C@H](Oc2ccc(CO)cc2)CC1", "solubility kinetic": "> 100"}
{"compound": "CNC(=O)c1ccc(O[C@H]2CC[C@@H](NC(=O)Nc3ccc(OC(F)(F)F)cc3)CC2)cc1", "solubility kinetic": 10}
{"test": "Inhibition of recombinant purified chicken soluble epoxide hydrolase using fluorescent PHOME as substrate", "parameters": "species or system Gallus gallus", "details": "not given", "units": {"IC50": "nM"}}
{"compound": "CC(=O)N1CCN(CCCCOc2cccc(NC(=O)NC34CC5CC(CC(C5)C3)C4)c2)CC1", "IC50": 4}
{"compound": "CC(=O)N1CCN(CCCCOc2ccc(NC(=O)NC34CC5CC(CC(C5)C3)C4)cc2)CC1", "IC50": 2.3}
{"compound": "NS(=O)(=O)c1ccc(-n2nc(CCCNC(=O)NC3CCCCCC3)cc2-c2ccccc2)cc1", "IC50": 3.3}
{"compound": "Cc1cc(C)c(CN2CCC(C(=O)NC3CCCCCC3)CC2)c(C)c1", "IC50": 13}
{"compound": "O=C(Nc1ccc(OCCOCCOCC(F)(F)F)cc1)NC12CC3CC(CC(C3)C1)C2", "IC50": 4.4}
{"compound": "C=CCO[C@H]1CC[C@@H](NC(=O)NC23CC4CC(CC(C4)C2)C3)CC1", "IC50": 1.7}
{"compound": "CCCCCOC(=O)C1CCCC(NC(=O)NC23CC4CC(CC(C4)C2)C3)C1", "note": "(stereo not given)", "IC50": 5.7}
{"compound": "O=C(O)CCCCCCCCCCCNC(=O)NC12CC3CC(CC(C3)C1)C2", "IC50": 13}
{"compound": "O=C(NC1CCCCCC1)N[C@H]1CC[C@@H](Oc2ccc(F)cc2)CC1", "IC50": 2.7}
{"compound": "Cc1ccc(S(=O)(=O)N2CCC(C(=O)NCC3CCCCC3)CC2)c(C)c1", "IC50": 3}
{"compound": "CNC(=O)c1ccc(O[C@H]2CC[C@H](NC(=O)NC34CC5CC(CC(C5)C3)C4)CC2)cc1", "IC50": 2.4}
{"compound": "CNC(=O)c1cc(O[C@H]2CC[C@H](NC(=O)Nc3ccc(Cl)c(C(F)(F)F)c3)CC2)ccn1", "IC50": 11}
{"compound": "CNC(=O)c1ccc(O[C@H]2CC[C@H](NC(=O)Nc3ccc(Cl)c(C(F)(F)F)c3)CC2)cn1", "IC50": 5.1}
{"compound": "O=C(CCCCCCCCCCCNC(=O)NC12CC3CC(CC(C3)C1)C2)N[C@@H]1O[C@H](CO)[C@H](O)[C@@H](O)[C@H]1O", "IC50": 3.5}
{"compound": "CCCCCOC(=O)C1CCC(NC(=O)NC23CC4CC(CC(C4)C2)C3)CC1", "note": "(stereo not given)", "IC50": 5.2}
{"compound": "CC(C)=CCO[C@H]1CC[C@@H](NC(=O)NC23CC4CC(CC(C4)C2)C3)CC1", "IC50": 5.3}
{"compound": "O=C(NCCCc1ccccc1)N[C@H]1CC[C@@H](Oc2ccc(F)cc2)CC1", "IC50": 3.5}
{"compound": "O=C(NC1CCCCCCC1)N[C@H]1CC[C@@H](Oc2ccc(F)cc2)CC1", "IC50": 5.1}
{"compound": "O=C(Nc1ccc(C(F)(F)F)cc1)N[C@H]1CC[C@H](OCc2c(F)cccc2F)CC1", "IC50": 4.4}
{"compound": "O=C(Nc1cccc(Cl)c1)N[C@H]1CC[C@H](OCc2c(F)cccc2F)CC1", "IC50": 2}
{"compound": "O=C(Nc1cccc(Br)c1)N[C@H]1CC[C@H](OCc2c(F)cccc2F)CC1", "IC50": 2.4}
{"compound": "O=C(NCCCc1ccccc1)N[C@H]1CC[C@H](OCc2c(F)cccc2F)CC1", "IC50": 1.9}
{"compound": "CCOC(=O)C(C)OCCCCCCCCNC(=O)NC12CC3CC(CC(C3)C1)C2", "note": "(stereo not given)", "IC50": 4.4}
{"compound": "COC(=O)c1ccc(C(=O)N2CCC(NC(=O)Nc3ccc(OC(F)(F)F)cc3)CC2)cc1", "IC50": 1.4}
{"compound": "O=C(NC12CC3CC(CC(C3)C1)C2)N[C@H]1CC[C@H](OCc2cc(F)cc(F)c2)CC1", "IC50": 3.1}
{"compound": "CC(C)(C)OC(=O)N1CCC(NC(=O)NC23CC4CC(CC(C4)C2)C3)CC1", "IC50": 7.5}
{"compound": "NC(=O)CCCCCCCCCCCNC(=O)NC12CC3CC(CC(C3)C1)C2", "IC50": 2.1}
{"compound": "O=C(NC12CC3CC(CC(C3)C1)C2)N[C@H]1CC[C@H](Oc2ccc(CO)cc2)CC1", "IC50": 1.2}
{"compound": "N#Cc1ccc(O[C@H]2CC[C@H](NC(=O)Nc3ccc(Cl)c(C(F)(F)F)c3)CC2)cc1", "IC50": 3.6}
{"compound": "CNC(=O)c1ccc(O[C@H]2CC[C@@H](NC(=O)Nc3ccc(OC(F)(F)F)cc3)CC2)cc1", "IC50": 2.1}
{"compound": "CCN(CC)C(=O)c1cc(O[C@H]2CC[C@H](NC(=O)Nc3ccc(Cl)c(C(F)(F)F)c3)CC2)ccn1", "IC50": 9.6}
{"compound": "NS(=O)(=O)c1ccc(-n2nc(CCCNC(=O)Nc3ccc(C(F)(F)F)cc3)cc2-c2ccc(F)cc2)cc1", "IC50": 5.7}
{"compound": "O=C(NC12CC3CC(CC(C3)C1)C2)N[C@H]1CC[C@@H](Oc2ccc(F)cc2)CC1", "IC50": 1.2}
{"compound": "O=C(NCCCCOc1ccc(F)cc1)NC12CC3CC(CC(C3)C1)C2", "IC50": 9.6}
{"test": "Stability in human liver microsomes assessed as compound remaining at 1 uM after 30 mins by mass spectrometry", "details": "not given", "units": {"remaining at 0.5 h, 1 µM": "%"}}
{"compound": "O=C(O)CCCCCCCCCCCNC(=O)NC12CC3CC(CC(C3)C1)C2", "remaining at 0.5 h, 1 µM": 98}
{"compound": "CNC(=O)c1ccc(O[C@H]2CC[C@H](NC(=O)NC34CC5CC(CC(C5)C3)C4)CC2)cc1", "remaining at 0.5 h, 1 µM": 101}
{"compound": "COc1ccc(O[C@H]2CC[C@@H](NC(=O)NC34CC5CC(CC(C5)C3)C4)CC2)cc1", "remaining at 0.5 h, 1 µM": 98}
{"compound": "COC(=O)c1ccc(C(=O)N2CCC(NC(=O)Nc3ccc(OC(F)(F)F)cc3)CC2)cc1", "remaining at 0.5 h, 1 µM": 1.2}
{"compound": "O=C(NC12CC3CC(CC(C3)C1)C2)N[C@H]1CC[C@H](Oc2ccc(CO)cc2)CC1", "remaining at 0.5 h, 1 µM": 91}
{"compound": "CNC(=O)c1ccc(O[C@H]2CC[C@@H](NC(=O)Nc3ccc(OC(F)(F)F)cc3)CC2)cc1", "remaining at 0.5 h, 1 µM": 101}
{"test": "Inhibition of recombinant purified chicken soluble epoxide hydrolase by FRET-based competitive displacement assay in presence of ACPU", "parameters": "species or system Gallus gallus", "details": "not given", "units": {"Ki": "nM"}}
{"compound": "CNC(=O)c1ccc(O[C@H]2CC[C@H](NC(=O)NC34CC5CC(CC(C5)C3)C4)CC2)cc1", "Ki": "< 0.02"}
{"compound": "O=C(NC12CC3CC(CC(C3)C1)C2)N[C@H]1CC[C@H](Oc2ccc(CO)cc2)CC1", "Ki": "< 0.02"}
